Consider one molecule from ChEMBL document CHEMBL3826919, “The discovery of novel and selective fatty acid binding protein 4 inhibitors by virtual screening and biological evaluation” (Bioorg Med Chem, 2016).

SMILES strings stand for the structures.

Assay [1] addresses T1, Fatty acid-binding protein, adipocyte (Mus musculus) (UniProt P04117).
T1 sequence (whole entry): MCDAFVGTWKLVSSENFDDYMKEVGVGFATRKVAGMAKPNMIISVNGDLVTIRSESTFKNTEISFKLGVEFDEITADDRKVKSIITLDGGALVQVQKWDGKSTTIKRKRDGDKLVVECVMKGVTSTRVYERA
Put plainly: Inhibition of FABP4 in mouse RAW264.7 cells assessed as inhibition of LPS-induced TNFalpha production after 24 hrs by ELISA. Type of assay: cell-based.

Assay [2] addresses T1, Fatty acid-binding protein, adipocyte (Mus musculus). Put plainly: Inhibition of FABP4 in mouse RAW264.7 cells assessed as inhibition of LPS-induced TNFalpha expression after 24 hrs by qPCR method. Type of assay: cell-based.
Assay [3] shares this target. Put plainly: Inhibition of FABP4 in mouse RAW264.7 cells assessed as inhibition of LPS-induced IL-6 expression after 24 hrs by qPCR method. Type of assay: cell-based.
Assay [4] deals with T2, Fatty acid-binding protein, liver (Homo sapiens) (UniProt P07148).
T2 sequence (whole entry): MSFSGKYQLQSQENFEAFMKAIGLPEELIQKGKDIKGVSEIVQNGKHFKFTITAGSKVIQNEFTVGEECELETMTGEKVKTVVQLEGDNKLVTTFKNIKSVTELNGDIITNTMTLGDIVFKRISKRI
Put plainly: Displacement of 1,8-ANS from His6-tagged FABP1 (unknown origin) expressed in Escherichia coli BL21(DE3) cells at 25 uM by fluorescence assay relative to control.

Assay [5] addresses T3, Fatty acid-binding protein, intestinal (Homo sapiens) (UniProt P12104).
T3 sequence (whole entry): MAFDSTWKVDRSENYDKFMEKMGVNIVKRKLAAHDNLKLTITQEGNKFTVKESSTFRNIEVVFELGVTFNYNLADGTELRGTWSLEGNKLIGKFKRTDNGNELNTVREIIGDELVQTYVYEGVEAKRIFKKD
Put plainly: Displacement of 1,8-ANS from His6-tagged FABP2 (unknown origin) expressed in Escherichia coli BL21(DE3) cells at 25 uM by fluorescence assay relative to control.

Assay [6] concerns the target Fatty acid-binding protein 5 (Homo sapiens) (UniProt Q01469). Put plainly: Displacement of 1,8-ANS from His6-tagged FABP5 (unknown origin) expressed in Escherichia coli BL21(DE3) cells at 25 uM by fluorescence assay relative to control.
In assay [7] the target is Fatty acid-binding protein, brain (Homo sapiens) (UniProt O15540). Put plainly: Displacement of 1,8-ANS from His6-tagged FABP7 (unknown origin) expressed in Escherichia coli BL21(DE3) cells at 25 uM by fluorescence assay relative to control.
Assay [8] has as its target Myelin P2 protein (Homo sapiens) (UniProt P02689). Put plainly: Displacement of 1,8-ANS from His6-tagged FABP8 (unknown origin) expressed in Escherichia coli BL21(DE3) cells at 25 uM by fluorescence assay relative to control.
Assay [9] concerns the target T4, Fatty acid-binding protein 9 (Homo sapiens) (UniProt Q0Z7S8).
T4 sequence (whole entry): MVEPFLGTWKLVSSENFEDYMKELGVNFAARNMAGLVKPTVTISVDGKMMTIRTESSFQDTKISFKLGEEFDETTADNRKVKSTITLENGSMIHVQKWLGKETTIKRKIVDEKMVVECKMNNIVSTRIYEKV
Put plainly: Displacement of 1,8-ANS from His6-tagged FABP9 (unknown origin) expressed in Escherichia coli BL21(DE3) cells at 25 uM by fluorescence assay relative to control.

In assay [10] the target is T5, Fatty acid-binding protein, heart (Homo sapiens, UniProt P05413). Put plainly: Displacement of 1,8-ANS from His6-tagged FABP3 (unknown origin) expressed in Escherichia coli BL21(DE3) cells by fluorescence assay. The settings on record: read-out: Ki(app).
Target sequence in this assay (P05413 whole entry): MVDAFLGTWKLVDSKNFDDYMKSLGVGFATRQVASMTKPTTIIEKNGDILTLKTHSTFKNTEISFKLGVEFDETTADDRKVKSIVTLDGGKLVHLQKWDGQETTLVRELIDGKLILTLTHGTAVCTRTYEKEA
The species entered for assay [11] is Homo sapiens. Put plainly: Displacement of 1,8-ANS from His6-tagged FABP4 (unknown origin) R106A mutant expressed in Escherichia coli BL21(DE3) cells at 25 uM by fluorescence assay relative to control.
The species entered for assay [12] is Homo sapiens. Put plainly: Displacement of 1,8-ANS from His6-tagged FABP4 (unknown origin) R126A mutant expressed in Escherichia coli BL21(DE3) cells at 25 uM by fluorescence assay relative to control.
Assay [13] deals with T6, Fatty acid-binding protein, adipocyte (Homo sapiens, UniProt P15090). Put plainly: Displacement of 1,8-ANS from His6-tagged FABP4 (unknown origin) expressed in Escherichia coli BL21(DE3) cells at 25 uM by fluorescence assay relative to control.
Target sequence in this assay (P15090 2-132 limits assumed): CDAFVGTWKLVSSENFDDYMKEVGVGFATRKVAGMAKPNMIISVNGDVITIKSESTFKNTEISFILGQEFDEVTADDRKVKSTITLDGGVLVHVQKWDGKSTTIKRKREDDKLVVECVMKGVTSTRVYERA
The target of assay [14] is T6, Fatty acid-binding protein, adipocyte. Put plainly: Displacement of 1,8-ANS from His6-tagged FABP4 (unknown origin) expressed in Escherichia coli BL21(DE3) cells by fluorescence assay. Particulars: read-out: Ki(app).
Target sequence in this assay (P15090 whole entry): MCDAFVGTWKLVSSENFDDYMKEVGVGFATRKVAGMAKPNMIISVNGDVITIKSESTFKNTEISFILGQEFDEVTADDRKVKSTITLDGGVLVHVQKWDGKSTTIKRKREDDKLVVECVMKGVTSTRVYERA
Assay [15] has the same target. Put plainly: Binding affinity to His6-tagged FABP4 (unknown origin) expressed in Escherichia coli BL21(DE3) cells assessed as change in melting temperature at 50 uM after 30 mins by SYPRO orange dye based thermal stability shift assay.
Target sequence in this assay (P15090 2-132 limits assumed): as the sequence (P15090 2-132 limits assumed) above
For assay [16] the target is unchanged. Put plainly: Direct binding to His6-tagged FABP4 (unknown origin) expressed in Escherichia coli BL21(DE3) cells by isothermal titration calorimetry.
Target sequence in this assay (P15090 whole entry): as the sequence (P15090 whole entry) above
The target of assay [17] is T5, Fatty acid-binding protein, heart. The settings on record: 25 uM.
Target sequence in this assay (P05413 2-133 limits assumed): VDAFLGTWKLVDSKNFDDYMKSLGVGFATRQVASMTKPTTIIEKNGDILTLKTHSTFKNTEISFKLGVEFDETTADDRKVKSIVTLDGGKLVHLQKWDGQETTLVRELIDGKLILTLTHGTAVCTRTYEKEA
Description: Displacement of 1,8-ANS from His6-tagged FABP3 (unknown origin) expressed in Escherichia coli BL21(DE3) cells at 25 uM by fluorescence assay relative to control
Assay [18] shares this target. The settings on record: 50 uM.
Target sequence in this assay (P05413 2-133 limits assumed): as above
Description: Binding affinity to His6-tagged FABP3 (unknown origin) expressed in Escherichia coli BL21(DE3) cells assessed as change in melting temperature at 50 uM after 30 mins by SYPRO orange dye based thermal stability shift assay

Chain of Fatty acid-binding protein, brain (Homo sapiens) (O15540 2-132 limits assumed): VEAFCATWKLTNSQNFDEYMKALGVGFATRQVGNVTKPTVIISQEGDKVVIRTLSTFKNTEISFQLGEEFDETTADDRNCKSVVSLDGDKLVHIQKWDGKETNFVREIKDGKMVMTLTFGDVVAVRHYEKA
Chain of Fatty acid-binding protein 5 (Homo sapiens) (Q01469 whole entry): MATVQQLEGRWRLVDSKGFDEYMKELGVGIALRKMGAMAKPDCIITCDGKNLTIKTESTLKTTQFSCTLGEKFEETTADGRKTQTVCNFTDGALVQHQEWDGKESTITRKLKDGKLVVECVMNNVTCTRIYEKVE
Chain of Myelin P2 protein (Homo sapiens) (P02689 whole entry, looked up): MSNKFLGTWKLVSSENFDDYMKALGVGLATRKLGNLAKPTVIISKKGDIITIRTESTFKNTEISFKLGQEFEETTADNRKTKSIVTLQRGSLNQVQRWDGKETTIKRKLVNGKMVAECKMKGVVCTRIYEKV

Consider `O=C(O)C1C2CC=CC2c2cc(Br)cc3c2N1CC1CC=CC31` (stereo not drawn), for which the inhibition result was “Dose-dependent effect” in [1]; “Dose-dependent effect” in assay [2]; “Dose-dependent effect” in assay [3]; 95.5% in [4]; 34.1% in assay [5]; 77.7% in assay [6]. Moreover, the inhibition in [7] was determined as 58.5%; in assay [8], 68.4%; in assay [9] it was 64%; in assay [11] it was 27%; in [12] it was 54.7%; in assay [13], 95.1%. For the same molecule, the inhibition in assay [17] worked out at 63.1%. Further, the figures for the Ki in assay [10] and in assay [14] were 1300 nM and 290 nM, respectively. Also, the ΔTm turned out to be 8.5 °C in assay [15] and 4 °C in assay [18]. In [16], this molecule had a Kd of 2650 nM.
